Test [1] can be described thus: Compound was evaluated for mean surviving fraction of Chinese hamster V79 cells following a 1-h exposure to H2O2. Type of test: functional, Cricetulus griseus.
Test [2] can be described thus: Compound was evaluated for mean surviving fraction of Chinese hamster V79 cells following a 12-Gy dose of radiation. Format: functional, Cricetulus griseus.

This note sets out measurements from ChEMBL document CHEMBL1131290, “Studies of structure-activity relationship of nitroxide free radicals and their precursors as modifiers against oxidative damage” (1998).

`CC1(C)CCC(C)(C)N1O` returned an H2O2 prot in test [1] of 2.3. Further, the Radiation prot in test [2] is given as 0.7.
